Source: patent US5770617A, “Terbenzimidazoles useful as antifungal agents” (Rutgers, The State University of New Jersey, priority 1997, dated 1998)
Entries after “also recorded” stand apart in the source; their conditions may differ.

biological target: T1, calf thymus topoisomerase I (Bos taurus, UniProt F1MN93); assay: Topoisomerase I-mediated DNA cleavage assay (calf thymus enzyme); type: biochemical; conditions: concentration relative to Hoechst 33342 (arbitrarily 1) producing the same cleavage on plasmid DNA; calf thymus topoisomerase I
T1 construct: DNA topoisomerase I was purified from calf thymus gland as reported previously; from tissue; host or cells: calf thymus gland
T1 sequence (F1MN93 1-767): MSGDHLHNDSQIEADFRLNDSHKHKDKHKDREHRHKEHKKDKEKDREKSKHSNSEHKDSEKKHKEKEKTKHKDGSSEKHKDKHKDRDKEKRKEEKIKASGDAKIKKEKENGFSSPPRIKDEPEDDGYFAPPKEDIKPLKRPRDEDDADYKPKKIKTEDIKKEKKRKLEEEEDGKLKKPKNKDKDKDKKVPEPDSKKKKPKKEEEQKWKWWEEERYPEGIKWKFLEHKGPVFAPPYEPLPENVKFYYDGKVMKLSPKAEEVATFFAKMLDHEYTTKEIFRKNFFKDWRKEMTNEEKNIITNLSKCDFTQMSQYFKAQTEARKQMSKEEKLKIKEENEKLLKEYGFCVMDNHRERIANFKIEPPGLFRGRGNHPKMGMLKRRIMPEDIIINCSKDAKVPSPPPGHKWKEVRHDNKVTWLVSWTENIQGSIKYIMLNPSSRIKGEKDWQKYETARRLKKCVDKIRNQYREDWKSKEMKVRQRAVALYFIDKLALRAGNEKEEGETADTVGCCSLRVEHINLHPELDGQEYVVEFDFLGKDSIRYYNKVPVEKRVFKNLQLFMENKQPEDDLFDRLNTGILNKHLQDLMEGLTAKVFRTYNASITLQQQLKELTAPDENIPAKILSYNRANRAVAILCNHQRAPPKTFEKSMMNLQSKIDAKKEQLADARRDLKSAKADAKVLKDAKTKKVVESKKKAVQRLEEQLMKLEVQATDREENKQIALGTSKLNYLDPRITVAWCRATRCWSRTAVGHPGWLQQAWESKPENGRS
Description: A. Topoisomerase I-Mediated DNA Cleavage Assays
DNA topoisomerase I was purified from calf thymus gland as reported previously by B. D. Halligan et al., J. Biol. Chem., 260, 2475 (1985).
Plasmid YEpG was also purified by the alkali lysis method followed by phenol deproteination and CsCl/ethidium isopycnic centrifugation as described by T. Maniatis et al., Molecular Cloning, A Laboratory Manual, Cold Spring Harbor Labs, N.Y. (1982) at pages 149-185. The end-labeling of the plasmid was accomplished as previously described by L. F. Liu et al., J. Biol. Chem., 258, 15365 (1983). The cleavage assays were performed as previously reported by A. Y. Chen et al., Cancer Res., 53, 1332 (1993). Human topoisomerase I was isolated as a recombinant fusion protein using a T7 expression system.

Row | Topo I-mediated DNA cleavage (REC, Relative Effective Concentration) | Compound
1 | 1 | Clc1ccc2[nH]c(-c3ccc4[nH]c(-c5ccc6[nH]cnc6c5)nc4c3)nc2c1 [JSKIV-68, 5-Chloro-2-[2'-(benzimidazol-5"-yl)benzimidazol-5'-yl]-benzimidazole]
2 | 10 | Clc1ccc(-c2ccc3[nH]c(-c4ccc5[nH]c(-c6ccc7[nH]cnc7c6)nc5c4)nc3c2)cc1 [JSKIV-47, 5-(p-Chlorophenyl)-2-[2'-(benzimidazol-5"-yl)benzimidazol-5'-yl]-benzimidazole]
3 | 1000 | N#Cc1ccc2[nH]c(-c3ccc4[nH]cnc4c3)nc2c1 [Compound 19, 5-Cyano-2-(benzimidazol-5'-yl)benzimidazole]

The remaining lines, values behind:

Row | Compound | Topo I-mediated DNA cleavage (REC, Relative Effective Concentration)
4 | c1cc(-c2ccc3[nH]c(-c4ccc5[nH]c(-c6ccc7[nH]cnc7c6)nc5c4)nc3c2)ccn1 [Compound 16, 5-(4-Pyridyl)-2-[2'-(benzimidazol-5"-yl)benzimidazol-5'-yl]benzimidazole] | 2
5 | c1ccc(-c2ccc3[nH]c(-c4ccc5[nH]c(-c6ccc7[nH]cnc7c6)nc5c4)nc3c2)nc1 [Compound 14, 5-(2-Pyridyl)-2-[2'-(benzimidazol-5"-yl)benzimidazol-5'-yl]benzimidazole] | 3.3
6 | c1ccc2[nH]c(-c3ccc4[nH]c(-c5ccc6[nH]cnc6c5)nc4c3)nc2c1 [Compound 10, 2-[2'-(Benzimidazol-5"-yl)benzimidazol-5'-yl]benzimidazole] | 1.1
7 | c1cncc(-c2ccc3[nH]c(-c4ccc5[nH]c(-c6ccc7[nH]cnc7c6)nc5c4)nc3c2)c1 [Compound 15, 5-(3-Pyridyl)-2-[2'-(benzimidazol-5"-yl)benzimidazol-5'-yl]benzimidazole] | 2

biological target: T2, Aspergillus topoisomerase I (Aspergillus nidulans, UniProt Q5BGS7); assay: Topoisomerase I cleavage assay, Aspergillus enzyme; type: biochemical; conditions: DNA cleavage assay
T2 construct: about 105 kDa by phosphate transfer
T2 sequence (Q5BGS7 1-871): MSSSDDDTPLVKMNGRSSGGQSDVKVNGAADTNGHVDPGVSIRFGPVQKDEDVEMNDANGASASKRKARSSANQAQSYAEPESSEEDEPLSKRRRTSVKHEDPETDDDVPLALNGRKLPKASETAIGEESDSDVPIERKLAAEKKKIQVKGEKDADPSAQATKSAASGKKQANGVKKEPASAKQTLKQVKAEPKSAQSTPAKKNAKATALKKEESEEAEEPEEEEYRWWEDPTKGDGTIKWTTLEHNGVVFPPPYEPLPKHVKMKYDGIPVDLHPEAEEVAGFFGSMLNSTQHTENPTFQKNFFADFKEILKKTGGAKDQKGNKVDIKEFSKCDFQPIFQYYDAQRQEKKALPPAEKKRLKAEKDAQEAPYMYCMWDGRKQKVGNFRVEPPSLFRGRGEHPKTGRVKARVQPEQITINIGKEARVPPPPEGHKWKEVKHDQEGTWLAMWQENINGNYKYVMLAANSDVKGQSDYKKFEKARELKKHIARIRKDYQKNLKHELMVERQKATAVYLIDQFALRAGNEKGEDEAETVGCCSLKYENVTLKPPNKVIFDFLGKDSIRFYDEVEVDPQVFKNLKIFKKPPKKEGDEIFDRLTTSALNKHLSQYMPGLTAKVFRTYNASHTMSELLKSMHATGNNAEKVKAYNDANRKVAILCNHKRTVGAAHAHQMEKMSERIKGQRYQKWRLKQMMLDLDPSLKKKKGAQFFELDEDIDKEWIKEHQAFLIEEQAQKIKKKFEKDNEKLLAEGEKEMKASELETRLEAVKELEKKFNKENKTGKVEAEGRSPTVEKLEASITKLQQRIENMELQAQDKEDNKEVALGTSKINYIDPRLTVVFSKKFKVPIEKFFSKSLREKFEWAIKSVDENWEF
Method: Two liters of YG medium (0.5% yeast extract and 2% glucose) were inoculated with approximately 5×10^8 conidia/ml. After 16 hours of growth at 37° C., the mycelia were collected, washed with Buffer I (50 mM Tris-HCl, pH 7.7, 1 mM EDTA, 1 mM EGTA, 10% glycerol, 1 mM phenylmethylsulfonyl fluoride and 1 mM 2-mercaptoethanol), and quickly chilled in liquid nitrogen. The frozen mycelia (approximately 20 grams) were ground to powder and resuspended in 300 ml of Buffer I. The lysate was centrifuged at 10K rpm in a Sorval HB3 Rotor for 15 minutes to remove cell debris. The supernatant was made 6% in polyethylene glycol (v/v) and 1M NaCl. After one hour on ice with gentle stirring, the solution was centrifuged at 14K rpm in a Sorvall Rotor for 30 minutes to remove nucleic acids.
Subsequent steps in purification were the same as described previously for purification of recombinant human DNA topoisomerase I (B. Gatto et al., Cancer Res., 56, 2795 (1996)). Briefly, the supernatant was chromatographed directly onto a hydroxyapatite Bio-gel HTP (BioRad Laboratories, Richmond, Calif.) column. Fractions containing relaxation activity were pooled, diluted and then loaded onto a BioRex70 column (BioRad Laboratories, Richmond, Calif.). The column was developed with a linear gradient from 0.2 to 1M KCl. The peak fractions were pooled and dialyzed overnight at 4° C. against 30 mM potassium phosphate, 50% glycerol (v/v), 0.5 mM EDTA, and 1 mM DTT. Recombinant human topoisomerase I was purified from Escherichia coli BL21 (DE3) harboring PET1B as described previously (Gatto et al., Cancer Res., 56, 2795 (1996)).
DNA topoisomerase I cleavage assays were performed as described by Y.-H. Hsiang et al., J. Biol. Chem., 260, 14873 (1985). YEpG DNA was linearized with BamHI and then 3 '-end-labeled with Klenow polymerase and α[-^32 P]dCTP. Following phenol extraction and ethanol precipitation, the labeled DNA was resuspended in 10 mM Tris, pH 8.0, and 1 mM EDTA. The DNA cleavage assay was done in a reaction mixture (20 μl) containing 40 mM Tris-HCl, pH 7.8, 100 mM KCl, 10 mM MgCl2, 0.5 mM dithiothreitol, 0.5 mM EDTA, 30 μg/ml bovine serum albumin, 20 ng of labeled YEpG DNA, and […] of Aspergillus or human topoisomerase I diluted to various extents. Following incubation at 23° C. for 15 minutes, the reactions were terminated by the addition of SDS (final concentration 1%) and proteinase K (final concentration 200 μg/ml). Proteinase K treatment continued at 37° C. for another 1 hour. The terminated reactions were either alkali-denatured and then loaded (alkaline loading) or loaded directedly in neutral loading buffer (neutral loading) onto a 1% agarose gel in neutral TPE electrophoresis solution. Gel drying and autoradiography were performed as described by Hsiang et al., cited above.

Row | Compound | inhibition (poisoning) of Aspergillus topoisomerase I, in words
8 | COc1cc2cc3c4cc(OC)c(OC)cc4cc[n+]3c(C)c2cc1OC [coralyne] | completely resistant; also recorded: did not inhibit Aspergillus topoisomerase I to any significant extent
9 | N=C(N)c1ccc(N=NNc2ccc(C(=N)N)cc2)cc1 [Berenil, berenil] | inactive
10 | CCOc1ccc(-c2nc3ccc(-c4nc5cc(CCCN(C)C)ccc5[nH]4)cc3[nH]2)cc1 [compound 2 wherein n is 3] | selective sensitivity
11 | COc1ccc(-c2nc3ccc(C(F)(F)F)cc3[nH]2)cc1 [QS/II/50] | None of the mono-benzimidazoles, including QS/II/50, QS/II/51, QS/II/59A, an QS/II/9, exhibited any inhibitory effect

biological target: T3, human topoisomerase I (Homo sapiens, UniProt P11387); assay: not given; conditions: cited from earlier work
T3 construct: made in house; host or cells: Escherichia coli BL21 (DE3) harboring PET1B
T3 sequence (P11387 1-765): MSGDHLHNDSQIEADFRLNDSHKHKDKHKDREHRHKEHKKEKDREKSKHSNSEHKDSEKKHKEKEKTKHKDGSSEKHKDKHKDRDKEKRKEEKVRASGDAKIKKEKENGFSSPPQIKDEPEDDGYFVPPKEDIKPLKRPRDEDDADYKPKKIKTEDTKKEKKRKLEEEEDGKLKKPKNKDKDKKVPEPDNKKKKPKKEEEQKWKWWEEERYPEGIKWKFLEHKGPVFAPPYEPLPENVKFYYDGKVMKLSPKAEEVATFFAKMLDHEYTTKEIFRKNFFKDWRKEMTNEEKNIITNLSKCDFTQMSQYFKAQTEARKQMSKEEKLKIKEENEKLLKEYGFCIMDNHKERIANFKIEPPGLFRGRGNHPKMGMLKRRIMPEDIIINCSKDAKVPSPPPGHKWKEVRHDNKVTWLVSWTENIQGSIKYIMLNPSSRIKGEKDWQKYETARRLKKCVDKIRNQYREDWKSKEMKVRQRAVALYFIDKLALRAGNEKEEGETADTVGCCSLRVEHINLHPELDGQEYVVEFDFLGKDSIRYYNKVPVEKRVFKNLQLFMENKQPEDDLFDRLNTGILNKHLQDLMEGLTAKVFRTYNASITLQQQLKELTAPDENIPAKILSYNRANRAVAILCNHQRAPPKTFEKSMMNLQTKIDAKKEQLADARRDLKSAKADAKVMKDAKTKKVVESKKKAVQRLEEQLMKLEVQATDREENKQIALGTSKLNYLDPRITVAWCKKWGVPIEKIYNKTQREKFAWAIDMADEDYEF

Row | Compound | inhibition of human topoisomerase I, in words (known / previously disclosed)
12 | COc1cc2cc3c4cc(OC)c(OC)cc4cc[n+]3c(C)c2cc1OC [coralyne] | highly potent inhibitors
13 | N=C(N)c1ccc(N=NNc2ccc(C(=N)N)cc2)cc1 [Berenil, berenil] | inactive
